Type in all cases: binding
In series [1] the test system is RNA Target 3′-rGAG UGM UAG ACG A. Briefly: Mismatch discrimination by UV melting (Table 3). As for the experimental part:
(§1) UV DNA melting curves were recorded in a Cary 4000 Scan UV-Visible Spectrophotometer using 3 μM of each oligonucleotide in a 10 mM phosphate buffer containing 200 mM NaCl at pH 7.0. Samples were annealed by heating to 85° C. (10° C./min) and then slowly cooling to 20° C. (1° C./min). As these six successive cycles (heating and cooling) were performed at a gradient of 1° C./min, the change in UV absorbance at 260 nm was recorded. The melting temperature was calculated from the 1st derivative of the melting curve using in built software.

In series [2] the test system is DNA target 5′-dGCT GCA GGC GTC G (SEQ ID NO: 35). Particulars: for Tm DNA target: pH 7.
In series [3] the test system is RNA target 5′-rGCU GCA GGC GUC G (SEQ ID NO: 36). Particulars: for Tm RNA target: pH 7.
Series [4] concerns DNA target: 5′-dGCT GGA GAG GTC G (SEQ ID NO: 39).
In series [5] the test system is RNA Target 3′-rGCUGCGMACGUCG
Briefly: Mismatch discrimination by UV melting, single triazole linkage MeC-T step (Table 6).

Series [6] has as its system DNA target: 5′-dGCT GCA AGC GTC G (SEQ ID NO: 48). The experiment in a line: UV melting, single triazole linkage, DNA target (Table 8).
In series [7] the test system is RNA target: 5′-rGCU GCA AGC GUC G (SEQ ID NO: 49). The experiment in a line: UV melting, single triazole linkage, RNA target (Table 8).
Series [8] concerns DNA target; 5′-dGCT AGA GAA GTC G (SEQ ID NO: 52). The experiment in a line: UV melting, two triazole linkages, DNA target (Table 9). Particulars: two MeC-T steps. Here is the method:
as §1
(§2) Next, oligonucleotides incorporating two triazole inter-nucleotide linkage steps were prepared by templated CuAAC click ligation reactions in the presence of a complementary splint. The ligated oligonucleotides were purified by denaturating 20% polyacrylamide gel electrophoresis and were evaluated for their binding affinity for complementary DNA/RNA strands (Table 9). […] When compared to unmodified ON7, a drop of only 0.8° C./modification was observed (ON8, RNA target). […] Since the improvement in binding affinity is specific for DNA:RNA hybrids, triazole-linked LNA could find use in selective probes for RNA targeting.

Series [9] has as its system RNA target; 5′-rGCU AGA GAA GUC G (SEQ ID NO: 18). Briefly: UV melting, two triazole linkages, RNA target (Table 9). Particulars: for TM RNA TARGET: two MeC-T steps. As for the experimental part:
as §1, §2

Setting [10] is: fully matched RNA target (M = A).
Setting [11] is: mismatch M = C, relative to the fully matched duplex (M = A).
Where [12] appears, read: mismatch M = G, relative to the fully matched duplex (M = A).
Setting [13] is: mismatch M = U, relative to the fully matched duplex (M = A).
Where [14] appears, read: 10 mM phosphate, 200 mM NaCl, pH 7.0, 3.0 μM each strand.
Where [15] appears, read: relative to the unmodified duplex (ON1).

Where two headings read alike, the source gives them in different places. In the oligonucleotide strings, read from the 5' end, every base follows the letter of its sugar. An asterisk marks phosphorothioate; unmarked linkages are phosphodiester. Other units and linkages are bracketed, terminal groups are in braces. A string of capitals states the bases alone. [tz] = triazole internucleoside linkage; l = locked nucleic acid (LNA); [5mC] = 5-methylcytosine; d = 2'-deoxy (DNA)

In turn, “5′-CTC ACT ATC TG^MeCT (DNA dCdTdCdAdCdTdAdTdCdTdGd[5mC]dT) [ON100, reference compound]” had a TM M = A in [1] (setting [10]) of 54.8 °C. Besides, the “ΔTM U” value in series [1] (mismatch RNA target M = U, change in Tm relative to the fully matched duplex (M = A)) is recorded as -11.3.

In the case of “5′-d CGACG^MeCp^MeCTGCAGC (DNA dCdGdAdCdGd[5mC]d[5mC]dTdGdCdAdGdC) [ON33, reference compound]”, the Tm DNA target in series [2] was 68.7 °C. Also, the Tm RNA target in series [3] came out at 69.1 °C.

For the substance “5′-d CGACG^MeCp^MeC^LTGCAGC (DNA dCdGdAdCdGd[5mC]l[5mC]dTdGdCdAdGdC) [ON34, reference compound]”, in [2], the “ΔTm DNA target” value is given as “+3.3” and the Tm DNA target was 72 °C. Moreover, in series [3], the “ΔTm RNA target” value was “+5.6” and the Tm RNA target was found to be 74.7 °C.

“5′-d CGACG^MeCt^MeCTGCAGC (DNA dCdGdAdCdGd[5mC][tz]d[5mC]dTdGdCdAdGdC) [ON12]”: in [2], the “ΔTm DNA target” value is -6.4 and the Tm DNA target amounted to 62 °C. In addition, in series [3], the “ΔTm RNA target” value is -5.8 and the Tm RNA target was 63.4 °C.

For the substance “5′-dCGACG^MeCt^MeC^LTGCAGC (DNA dCdGdAdCdGd[5mC][tz]l[5mC]dTdGdCdAdGdC) [ON11]”, in series [2], the “ΔTm DNA target” value is -5.1 and the Tm DNA target is 63.5 °C. Moreover, in [3], the “ΔTm RNA target” value is listed as -0.5 and the Tm RNA target came to 68.6 °C.

For “5′-dCGA^MeCp^MeCTCT^MeCp^MeCAGC (DNA dCdGdAd[5mC]d[5mC]dTdCdTd[5mC]d[5mC]dAdGdC) [ON35, reference compound]”, the Tm DNA target in series [4] came out at 66.6 °C.

As for “5′-dCGA^MeCp^MeC^LTCT^MeCp^MeC^LAGC [ON36, reference compound]”, in series [4], the Tm DNA target is 72.2 °C and the “ΔTm/mod DNA target” value is listed as “+2.8”.

For 5′-dCGA^MeCt^MeCTCT^MeCt^MeCAGC [ON14], in series [4], the Tm DNA target was determined as 51.9 °C and the “ΔTm/mod DNA target” value is reported as -7.3.

Take “5′-dCGA^MeCt^MeC^LTCT^MeCt^MeC^LAGC [ON13]”: in series [4], the Tm DNA target is 56.4 °C and the “ΔTm/mod DNA target” value was -5.1.

Regarding “CGACG^MeCTTGCAGC (dCdGdAdCdGd[5mC]dTdTdGdCdAdGdC) [ON1, unmodified 13-mer, reference compound]”, in series [5] (setting [10]), the TM M = A was determined as 62.8 °C. For the same substance, in series [5] (setting [11]), the “ΔTM C” value is listed as -16.3. Also, the “ΔTM G” value in series [5] (setting [12]) is -3.9. Besides, the “ΔTM U” value in series [5] (setting [13]) is -13.7. Besides, in series [6] (setting [14]), the “TM DNA TARGET” value was 64.2 °C. Further, the “TM RNA TARGET” value in [7] (setting [14]) turned out to be 62.8 °C.

For the substance “CGACG^MeCT^LTGCAGC (DNA dCdGdAdCdGd[5mC]lTdTdGdCdAdGdC) [ON4, reference compound]”, in series [5], the TM M = A is 68.9 °C, the “ΔTM C” value is listed as -15.2, the “ΔTM G” value is listed as -4.8 and the “ΔTM U” value is on record as -13.7. The ΔTM DNA TARGET in series [6] stood at 3.3 °C. In series [6] (pH 7), this substance displayed a TM DNA TARGET of 67.5 °C. Moreover, in series [7], the ΔTM RNA TARGET worked out at 6.1 °C. This substance came in with a TM RNA TARGET in series [7] (pH 7) of 68.9 °C.

In the case of “CGACG^MeC^LtTTGCAGC (dCdGdAdCdGl[5mC][tz]dTdTdGdCdAdGdC) [ON5, LNA on the 5′-side of the triazole]”, in [6] (setting [14]), the “TM DNA TARGET” value was 52.7 °C. For the same substance, in [6] (setting [15]), the “ΔTM DNA TARGET” value was -11.5 °C. Moreover, the “TM RNA TARGET” value in series [7] (setting [14]) was 55.5 °C. In addition, the “additional stabilising effect of LNA on the 5′-side of the triazole” value in series [7] (DNA:RNA hybrids or DNA duplexes (Table 8)) is “no significant additional stabilising effect”. In addition, the “ΔTM RNA TARGET” value in [7] (setting [15]) was -7.2 °C.

In the case of “CGACG^MeC^LtT^LTGCAGC (DNA dCdGdAdCdGl[5mC][tz]lTdTdGdCdAdGdC) [ON6]”, the “ΔTM DNA TARGET” value in series [6] was -5.8. In addition, in [6] (pH 7), the TM DNA TARGET is 58.4 °C. Also, in series [7], the “additional stabilising effect of LNA on the 5′-side of the triazole” value was “no significant additional stabilising effect” and the “ΔTM RNA TARGET” value is listed as “+0.1”. Further, the TM RNA TARGET in series [7] (pH 7) amounted to 62.9 °C.

CGACG^MeCtTTGCAGC [ON3] gave a TM M = A in series [5] (setting [10]) of 56.6 °C. The “ΔTM C” value in series [5] (setting [11]) is -16.1. Moreover, the “ΔTM G” value in series [5] (setting [12]) was -2.2. Further, in series [5] (setting [13]), the “ΔTM U” value is listed as -12.9. The “TM DNA TARGET” value in [6] (setting [14]) was found to be 55.3 °C. The “ΔTM DNA TARGET” value in series [6] (setting [15]) is -8.9 °C. Moreover, the “TM RNA TARGET” value in [7] (setting [14]) was found to be 56.6 °C. The “ΔTM RNA TARGET” value in [7] (setting [15]) is -6.2 °C.

In the case of “CGACG^MeCtT^LTGCAGC (DNA dCdGdAdCdGd[5mC][tz]lTdTdGdCdAdGdC) [ON2]”, in series [5], the TM M = A turned out to be 62 °C, the “ΔTM C” value is -15.6, the “ΔTM G” value is recorded as -3.3 and the “ΔTM U” value is given as -13.4. In [6], the “increase in thermal stability compared to the duplex containing only the triazole linkage” value is 2.9 and the “ΔTM DNA TARGET” value is listed as −6.0. For the same substance, the TM DNA TARGET in series [6] (pH 7) was 58.2 °C. Moreover, in series [7], the “increase in Tm relative to the duplex with only the triazole linkage” value is listed as 5.4 and the “ΔTM RNA TARGET” value is reported as −0.8. Besides, the TM RNA TARGET in [7] (pH 7) turned out to be 62 °C.

Turning to “CGA^MeCTTCT^MeCTAGC (dCdGdAd[5mC]dTdTdCdTd[5mC]dTdAdGdC) [ON7, unmodified 13-mer, reference compound]”, in [8], the “TM DNA TARGET” value turned out to be 57.1 °C. For the same substance, in series [9], the “TM RNA TARGET” value was determined as 58.8 °C.

Turning to “CGA^MeCT^LTCT^MeCT^LAGC (dCdGdAd[5mC]lTdTdCdTd[5mC]lTdAdGdC) [ON10, two LNA, no triazole, reference compound]”, the “TM DNA TARGET” value in series [8] was found to be 62.2 °C. For the same substance, the “TM RNA TARGET” value in series [9] stood at 70.0 °C.

As to CGA^MeCtTTCT^MeCtTAGC [ON9], the “TM DNA TARGET” value in [8] is 42.3 °C. In addition, the “TM RNA TARGET” value in [9] is 47.1 °C.

Consider CGA^MeCtT^LTCT^MeCtT^LAGC [ON8], for which the “TM DNA TARGET” value in series [8] was 48.0 °C. Besides, the “drop in Tm compared to unmodified ON7” value in series [9] (RNA target) was found to be 0.8 °C/modification. For the same substance, in [9] (RNA target, compare ON8 and ON9), the “increase in Tm relative to oligonucleotides with two triazole linkages without 3′-LNA” value came to 5.0 °C/modification. Further, the “TM RNA TARGET” value in series [9] was 57.1 °C.

The record behind these values is US11110114B2, “Dinucleotides” (OXFORD UNIVERSITY INNOVATION LIMITED, priority 2017, dated 2021).
